Among the data in patent US7772271B2 (priority 2004, dated 2010) are melting point values, retold here.

For orientation: melting point means the temperature of the solid-liquid transition.

`CC(OC(=O)Nc1ccc(-c2c(C#N)c3ccc(OC4CCOC4)cc3n2C2CC2)cc1)C(C)(C)C` (stereo not shown) [Compound 1447]: the melting point was 220 to 222 °C.

In turn, `Cc1cccn(-c2ccc3c(C#N)c(-c4ccc(NC(=O)NC(C)C)cc4)n(C4CCC4)c3c2)c1=O` [Compound 3342] registered a melting point of 266 to 267.5 °C.

Consider `CCOC(CCOc1ccc2c(C#N)c(-c3ccc(NC(=O)OC(C)C)cc3)n(C3CCC3)c2c1)OCC` [Compound 2779], for which the melting point is 146 to 150 °C.

Take `CCC(C)NC(=O)c1ccc2c(C#N)c(-c3ccc(NC(=O)O[C@H](C)C4CC4)cc3)n(C3CCC3)c2c1` (stereo partly shown) [Compound 2273]: the melting point is 118 to 121 °C.

On to `CC(OC(=O)Nc1ccc(-c2c(C#N)c3ccc(OC4CCOCC4)cc3n2C2CCC2)cc1)C(F)(F)F` (stereo not shown) [Compound 2668], for which the melting point lay within 195 to 197 °C.

`Cc1ccnc(Oc2ccc3c(C#N)c(-c4ccc(NS(=O)(=O)C5CC5)cc4)n(C4CCC4)c3c2)n1` [Compound 2903] gave a melting point of 172 to 174 °C.

`CCOc1ccc2c(C#N)c(-c3ccc(NC(=O)O[C@H](C)c4ccncc4)cc3)n(C3CCC3)c2c1` [Compound 2705] showed a melting point of 180 to 183 °C.

Compound `CCn1c(-c2ccc3c(ccn3S(C)(=O)=O)c2)c(C#N)c2ccc(OC)cc21` [compound 1330, 1-ethyl-1′-methanesulfonyl-6-methoxy-1H,1′H-[2,5′]biindolyl-3-carbonitrile] came in with a melting point of 148 to 151 °C.

For the compound `CC(OC(=O)Nc1ccc(-c2c(C#N)c3ccc(OCCCCn4cncn4)cc3n2C2CCC2)cc1)c1ccc(F)cc1` (stereo not shown) [Compound 2644], the melting point was 108 to 110 °C.

Compound `CC(C)NC(=O)Nc1ccc(-c2c(C#N)c3ccc(OC4COCOC4)cc3n2C2CCC2)cc1` [Compound 2882] yielded a melting point of 210 to 212 °C.

As to `N#Cc1c(-c2ccc(NC(=O)OCC3CC3)cc2)n(C2CCC2)c2cc(OC3COCOC3)ccc12` [Compound 2860], the melting point lay in the range of 197 to 198 °C.

`N#Cc1c(-c2ccc(NC(=O)O[C@@H](c3ccccc3)C(F)(F)F)cc2)n(C2CCC2)c2cc(OCC3OCCO3)ccc12` [Compound 2805] had a melting point of 174 to 175 °C.

Consider `N#Cc1c(-c2ccc(NS(=O)(=O)C3CCC3)cc2)n(C2CCC2)c2cc(C(=O)N3CCOCC3)ccc12` [Compound 2900], for which the melting point lay within 198 to 200 °C.

In the case of `C=COC(=O)Nc1cccc(-c2c(C#N)c3ccc(OCC)cc3n2C2CCC2)c1` [Compound 1355], the melting point lay in the range of 163 to 164 °C.

Take `C[C@@H](OC(=O)Nc1ccc(-c2c(C#N)c3ccc(O[C@@H]4CCOC4)cc3n2C2CCC2)cc1)C(F)(F)F` [Compound 2853]: the melting point was 189 to 190 °C.

In the case of `N#Cc1c(-c2ccc(NC(=O)Nc3n[nH]c(C4CC4)n3)cc2)n(C2CCC2)c2cc(Oc3ncccn3)ccc12` [Compound 3087], the melting point is 275 °C (dec.).

Turning to `C[C@@H](OC(=O)Nc1ccc(-c2c(C#N)c3cc(Oc4nccnc4Cl)ccc3n2C2CCC2)cc1)C1CC1` [Compound 3255], the melting point was 209 to 211 °C.

Regarding `CCCS(=O)(=O)Nc1ccc(-c2c(C#N)c3cc(C(=O)N4CCCC4)ccc3n2C2CCC2)cc1` [Compound 3097], the melting point was in the range of 200 to 202 °C.

In turn, `COCCN(CCOC)C(=O)c1ccc2c(C#N)c(-c3ccc(NC(=O)O[C@H](C)C4CC4)cc3)n(C3CCC3)c2c1` [Compound 2794] had a melting point of 75 to 77 °C.

As for `CCn1c(-c2ccc(NC(=O)C3CC3)cc2)c(C#N)c2ccc(OCCN3CCCN(C)CC3)cc21` [Compound 1395], the melting point was in the range of 95.9 to 99 °C.

In turn, `N#Cc1c(-c2ccc(NS(=O)(=O)C3CCCC3)cc2)n(C2CCC2)c2cc(OC3COCOC3)ccc12` [Compound 2918] yielded a melting point of 195 to 196 °C.

`CC(C)S(=O)(=O)Nc1ccc(-c2c(C#N)c3cc(Oc4ncccn4)ccc3n2C2CCC2)cc1` [Compound 2848] gave a melting point of 206 to 207 °C.

The compound `CCCS(=O)(=O)Nc1ccc(-c2c(C#N)c3ccc(Oc4ncccc4C(F)(F)F)cc3n2C2CC2)cc1` [Compound 2935] returned a melting point of 216 to 217 °C.

Regarding `CC(C)OC(=O)Nc1c(F)cc(-c2c(C#N)c3ccc(Oc4ncccn4)cc3n2C2CCC2)cc1F` [Compound 3036], the melting point lay within 144 to 154 °C.

`CCOc1ccc2c(C#N)c(-c3ccc(NC(=O)OC4CCN(C(=O)OCCOC)CC4)cc3)n(C3CCC3)c2c1` [Compound 3073] gave a melting point of 185 to 190 °C.

For the compound `CC(C)NC(=O)Nc1ccc(-c2c(C#N)c3ccc(OC4CCOC4)cc3n2C2CCC2)cc1` (stereo not shown) [Compound 1462], the melting point fell in the range of 183 to 184 °C.

The compound `CC(OC(=O)Nc1ccc(-c2c(C#N)c3cc(OCCCn4cncn4)ccc3n2C2CCC2)cc1)C1CCC1` (stereo not shown) [Compound 2730] displayed a melting point of 149 to 150 °C.

Compound `COCCOc1ccc2c(C#N)c(-c3ccc(NC(=O)OC4CCOC4)cc3)n(C(C)C)c2c1` (stereo not shown) [Compound 2610] yielded a melting point of 181 to 183 °C.

For the compound `Cc1csc(Nc2ccc(-c3c(C#N)c4ccc(OCCF)cc4n3C3CCC3)cc2)n1` [Compound 3205], the melting point was 199 to 201 °C.

In the case of `C[C@@H](OC(=O)Nc1ccc(-c2c(C#N)c3ccc(OC4COCOC4)cc3n2C2CCC2)cc1)C(F)(F)F` [Compound 2885], the melting point was in the range of 189 to 190 °C.

Consider `C[C@H](NS(=O)(=O)Nc1ccc(-c2c(C#N)c3ccc(N4CCOCC4)cc3n2C2CCC2)cc1)C1CC1` [Compound 3314], for which the melting point fell in the range of 198 to 199 °C.

Turning to `CCS(=O)(=O)Nc1ccc(-c2c(C#N)c3ccc(OC4CCS(=O)(=O)CC4)cc3n2C2CCC2)cc1` [Compound 3184], the melting point fell in the range of 259 to 264 °C.

Regarding `CC(=O)c1cccc(Nc2ccc(-c3c(C#N)c4ccc(OC5CCOCC5)cc4n3C3CCC3)cc2)c1` [Compound 3162], the melting point was 148 to 152 °C.

As to `N#C/N=C(/Nc1ccc(-c2c(C#N)c3ccc(OC4CCOCC4)cc3n2C2CCC2)cc1)NC1CCCCC1` [Compound 3176], the melting point was in the range of 209 to 211 °C.

Regarding `CCn1c(-c2ccc(N)cc2)c(C#N)c2ccc(OCCOC)cc21` [Compound 1366], the melting point was 168 to 169 °C.

`CC(OC(=O)Nc1ccc(-c2c(C#N)c3ccc(OC4CCCO4)cc3n2C2CC2)cc1)C1CC1` (stereo not shown) [compound 1444, {4-[3-cyano-1-cyclopropyl-6-(tetrahydrofuran-2-yloxy)indol-2-yl]phenyl}carbamic acid 1-cyclopropylethyl ester]: the melting point lay within 189 to 191 °C.

`C[C@@H](OC(=O)Nc1ccc(-c2c(C#N)c3ccc(Oc4ncccc4F)cc3n2C2CC2)cc1)C1CC1` [Compound 3007] returned a melting point of 154 to 156 °C.

For the compound `N#Cc1c(-c2ccc(NC(=O)O[C@H](c3ccccc3)C(F)(F)F)cc2)n(C2CCC2)c2cc(OCC3OCCO3)ccc12` [Compound 2806], the melting point lay in the range of 175 to 176 °C.

Consider `CCn1c(-c2ccc(NC(=O)C3CC3)cc2)c(C#N)c2ccc(OCCN(C)CCN(C)C)cc21` [Compound 1413], for which the melting point lay in the range of 90.2 to 95.4 °C.

In turn, `CCn1c(-c2ccc(NS(=O)(=O)CC)cc2)c(C#N)c2ccc(C(=O)N3CCCC3)cc21` [Compound 1363] returned a melting point of 168 to 171 °C.

The compound `CCCS(=O)(=O)Nc1ccc(-c2c(C#N)c3ccc(Oc4nccc(C)n4)cc3n2CC2CC2)cc1` [Compound 2969] returned a melting point of 181 to 183 °C.

`C[C@@H](OC(=O)Nc1ccc(-c2c(C#N)c3ccc(Oc4ncccn4)cc3n2C2CCC2)cn1)C(F)(F)F` [Compound 3322] registered a melting point of 227 to 229 °C.

The compound `CC(C)OC(=O)Nc1ccc(-c2c(C#N)c3cc(C(=O)N4CCCC4)ccc3n2C2CCC2)cc1` [Compound 3148] returned a melting point of 204 to 205 °C.

Compound `CS(=O)(=O)Nc1ccc(-c2c(C#N)c3ccc(C(=O)N4CCOCC4)cc3n2C2CCC2)cc1` [Compound 2897] came in with a melting point of 247 to 249 °C.

Turning to `CC(NC(=O)Nc1ccc(-c2c(C#N)c3ccc(Oc4ncccn4)cc3n2C2CCC2)cc1)c1ccc(F)cc1` (stereo not shown) [Compound 2710], the melting point fell in the range of 240 to 242 °C.

Compound `CCCS(=O)(=O)Nc1cc(C)c(-c2c(C#N)c3ccc(Oc4nccnc4C#N)cc3n2C2CCC2)cc1C` [Compound 3336] displayed a melting point of 257 to 259 °C.

`CCCS(=O)(=O)Nc1ccc(-c2c(C#N)c3ccc(OCCO)cc3n2C2CCC2)cc1` [Compound 1451]: the melting point was in the range of 163 to 164 °C.

As to `C[C@@H](OC(=O)Nc1ccc(-c2c(C#N)c3ccc(C(=O)N4CCCCC4)cc3n2C2CCC2)cc1)C1CC1` [Compound 2787], the melting point lay in the range of 148 to 150 °C.

Turning to `CC(C)c1ccc(Nc2ccc(-c3c(C#N)c4ccc(OC5CCOCC5)cc4n3C3CCC3)cc2)cc1` [Compound 3127], the melting point was in the range of 185 to 188 °C.

Compound `CC(C)OC(=O)Nc1ccc(-c2c(C#N)c3cc(C(=O)N(C)C)ccc3n2C2CCC2)cc1` [Compound 3146] yielded a melting point of 136 to 138 °C.

`CC(C)NC(=O)Oc1ccc(-c2c(C#N)c3ccc(OC4CCOCC4)cc3n2CC2CC2)cc1` [Compound 2782] came in with a melting point of 161 to 163 °C.

In the case of `CCOc1ccc2c(C#N)c(-c3ccc(NC(=O)NCCc4ccccn4)cc3)n(C3CCC3)c2c1` [Compound 1392], the melting point was 193 to 197 °C.

In turn, `Cc1cc(C)cc(CNc2ccc(-c3c(C#N)c4ccc(OC5CCOCC5)cc4n3C3CCC3)cc2)c1` [Compound 3122] showed a melting point of 104 to 107 °C.

Turning to `CC(C)NC(=O)Nc1ccc(-c2c(C#N)c3ccc(OCCS(C)(=O)=O)cc3n2C2CCC2)cc1` [Compound 2873], the melting point is 170 to 180 °C.

Turning to `CCn1c(-c2ccc(NC(=O)N3CCC(C)CC3)cc2)c(C#N)c2ccc(OCCOC)cc21` [Compound 1379], the melting point lay within 152 to 155 °C.

Compound `CCS(=O)(=O)Nc1ccc(-c2c(C#N)c3ccc(C(=O)N4CCOCC4)cc3n2C2CCC2)cc1` [Compound 2898] had a melting point of 220 to 222 °C.

Consider `N#Cc1c(-c2ccc(NC(=O)OC3CCS(=O)(=O)CC3)cc2)n(C2CC2)c2cc(Oc3ncccn3)ccc12` [Compound 3269], for which the melting point was 240 to 246 °C.

As to `COCCOc1ccc2c(C#N)c(-c3ccc(NC(=O)OC(C)c4ccccc4)cc3)n(C3CC3)c2c1` (stereo not shown) [Compound 1438], the melting point was 76 to 79 °C.
